Results from patent US5965701A, “Kappa receptor opioid peptides” (priority 1997, dated 1999).

Tests used:
[1] = molecular target: T1, cloned human kappa (hKOR) receptor (Homo sapiens, UniProt P41145); experiment: biochemical; assay type: binding
T1 construct: expressed in transfected cells; host or cells: HN9.10 (mouse hippocampal neuroblastoma), stably transfected

[2] = molecular target: T2, cloned human mu opioid (hMOR) receptor (Homo sapiens, UniProt P35372); experiment: Competition binding at cloned hMOR, displacement of 3H-DAMGO; conditions: hMOR stably expressed in HN.9.10 cells, read-out: Ki MOR
T2 construct: expressed in transfected cells; host or cells: HN9.10 (mouse hippocampal neuroblastoma), stably transfected
T2 sequence (P35372 whole entry): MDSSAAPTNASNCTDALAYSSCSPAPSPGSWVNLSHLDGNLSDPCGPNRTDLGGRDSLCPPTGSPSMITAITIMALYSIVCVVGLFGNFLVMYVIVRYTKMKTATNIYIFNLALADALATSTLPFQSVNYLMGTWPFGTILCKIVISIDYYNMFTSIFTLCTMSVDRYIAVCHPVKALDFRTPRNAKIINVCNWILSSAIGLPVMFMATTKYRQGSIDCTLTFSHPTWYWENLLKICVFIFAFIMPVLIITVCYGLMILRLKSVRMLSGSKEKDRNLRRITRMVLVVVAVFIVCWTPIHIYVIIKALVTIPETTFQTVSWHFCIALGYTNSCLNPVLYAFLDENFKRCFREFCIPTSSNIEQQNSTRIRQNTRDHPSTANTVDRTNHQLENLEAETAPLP

conscious male ICR mice = experiment: Mouse acetic acid writhing test (WT); assay type: in vivo
Procedure: Selected peptides that are identified in Tables A-G have been further specifically subjected to in vivo testing for determination of duration of action of their opioid properties, and the results are reported in Table H hereinafter. The peptide numbers correspond to those in the earlier tables and the figures with regard to μ/K ratio are simply carried over for reference purposes. The in vivo testing is carried out using a mouse writhing test (WT) that is well-suited for determining the length of duration of antinociceptive biological activity. This test is described in detail in an article by G. A. Bentley et al., Br. J. Phamac., 73:325-332, 1981, and it employs conscious male ICR mice which are purchased from Harlan and which weigh between 20 and 30 grams. The mice are fasted for 12 to 16 hours prior to beginning the test. The nociceptive behavior, i.e. writhing, to be monitored is induced by the intraperitoneal (i.p.) administration of dilute acetic acid. 10 milliliters of 0.6% aqueous acetic acid is used per kg of body weight. Writhing is scored during the 15 minutes following acetic acid administration. In a first step, compounds are tested at 3 to 4 increasing doses, given by intravenous route, and at one unique pretreatment time (-5 minutes before acetic acid injection). […] In a second step, this submaximal effective dose for each specific peptide is administered at various pretreatment times (i.e. -5 minutes, -60 minutes, -120 minutes and -180 minutes) prior to the administration of the acetic acid in order to determine the duration of action. Throughout the test, a control group of mice are used which are administered only the vehicle without the candidate peptide. The number of writhes are counted over a 15-minute period, starting from the time of acetic acid injection, and bioactivity, i.e. antinociception, is expressed as a percentage, and is calculated as follows:
100×(writhes in control group-writhes in treated group)/writhes in
Values higher than 100% indicate greater antinociception than at the beginning of the experiment. It is felt that the opioid peptide should be effective to reduce writhing by at least about 25% at a time of 1 hour to be considered to have long duration of in vivo action.
In addition to using this test to determine duration of antinociceptive activity, it is also used to measure the in vivo biopotency (short term) of the peptide. This value is given in the table under the heading WT-ED50 in milligrams per kg of body weight. The value is a measure of the dosage necessary to reduce the number of writhes in the mouse being tested by 50% (as compared to a control mouse) over a period of 15 minutes.

T1 sequence (P41145 whole entry): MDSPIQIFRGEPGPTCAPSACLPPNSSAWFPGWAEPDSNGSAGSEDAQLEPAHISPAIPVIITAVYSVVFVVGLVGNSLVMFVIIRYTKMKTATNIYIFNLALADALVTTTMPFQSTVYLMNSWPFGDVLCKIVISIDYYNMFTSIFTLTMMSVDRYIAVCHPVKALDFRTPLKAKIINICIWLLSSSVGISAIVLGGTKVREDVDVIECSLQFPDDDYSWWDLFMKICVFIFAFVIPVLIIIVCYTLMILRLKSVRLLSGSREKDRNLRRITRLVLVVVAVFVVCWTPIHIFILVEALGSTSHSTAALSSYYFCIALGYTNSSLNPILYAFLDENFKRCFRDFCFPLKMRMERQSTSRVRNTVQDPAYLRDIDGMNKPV

**Q.** What does the source list for `CC(C)C[C@@H](NC(=O)[C@@H](Cc1ccccc1)NC(=O)[C@H](N)Cc1ccccc1)C(=O)N[C@H](CCCN)C(=O)N1CCOCC1` [Peptide 57, H-D-Phe-D-Phe-D-Leu-D-Onn-Mor]?
**A.** μ/κ Ratio (binding affinity for KOR versus MOR) ([1]; Ki MOR / Ki KOR): 28,000; Ki ([1]; read-out: Ki KOR): 0.19 nM; Ki [2]: 5260 nM; WT-ED50 (conscious male ICR mice; i.v., 5 minutes before acetic acid i.p., writhes over 15 minutes): 0.026 mg/kg; % Antinociception 1 hr (conscious male ICR mice; submaximal effective dose i.v., 60 min pretreatment, percentage of the activity found at -5 min): 100%; % Antinociception 2 hr (conscious male ICR mice; submaximal effective dose i.v., 120 min pretreatment, percentage of the activity found at -5 min): 67.2%; % Antinociception 3 hr (conscious male ICR mice; submaximal effective dose i.v., 180 min pretreatment, percentage of the activity found at -5 min): 58.2%; TF-ED50 (mouse; i.v., 52° C. water, central effects): 5.6 mg/kg; BPI (Brain Penetration Index) (mouse; mouse, in vivo, iv): 215
